SMILES strings stand for the structures.

In one test the target is T1, NLRP3 inflammasome (Homo sapiens, UniProt Q96P20).
T1 construct: endogenous in cells; host or cells: THP-1 monocytic cells
Nature of the test: IL-1β secretion assay (NLRP3 IC50) in LPS-primed, nigericin-activated THP-1 cells, HTRF. Format: cell-based. As to conditions: monocytic THP-1 cells; LPS 10 ng/mL 3 h priming, then compound + nigericin 10 μM 2 h; relative IC50, 10 concentrations, geometric mean. The method in brief:
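IL-1β in supernatant read by HTRF after 2 h co-incubation of compound (0.1% DMSO, 10 concentrations, 1:3 series) with nigericin at 10 μM final, following 3 h LPS (10 ng/mL) priming of THP-1 monocytes at 37° C. Inhibition normalised to unactivated and no-compound controls; geometric-mean relative IC50 from 4-parameter logistic model.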
In general terms: TR-FRET usually uses a lanthanide donor and a delayed reading to cut background.

Test [1] has as its system NF-kB pathway (TNF-α secretion by THP-1 cells). In words: TNF-α secretion assay in LPS-stimulated THP-1 cells, Lumit immunoassay. Format: cell-based, human. As to conditions: Homo sapiens, THP-1, 3 h, monocytic THP-1 cells, LPS 10 ng/mL, relative IC50, 10 concentrations, geometric mean. The procedure, abridged: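 TNF-α release was quantified directly in the cell plate by Lumit immunoassay after a 3-h, 10 ng/mL LPS trigger of compound-treated THP-1 cells (RPMI, 5% FBS). Percent inhibition versus no-compound and unstimulated controls fed a 4-parameter logistic fit over 10 concentrations, giving geometric-mean relative IC50.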

T1 sequence (Q96P20 whole entry): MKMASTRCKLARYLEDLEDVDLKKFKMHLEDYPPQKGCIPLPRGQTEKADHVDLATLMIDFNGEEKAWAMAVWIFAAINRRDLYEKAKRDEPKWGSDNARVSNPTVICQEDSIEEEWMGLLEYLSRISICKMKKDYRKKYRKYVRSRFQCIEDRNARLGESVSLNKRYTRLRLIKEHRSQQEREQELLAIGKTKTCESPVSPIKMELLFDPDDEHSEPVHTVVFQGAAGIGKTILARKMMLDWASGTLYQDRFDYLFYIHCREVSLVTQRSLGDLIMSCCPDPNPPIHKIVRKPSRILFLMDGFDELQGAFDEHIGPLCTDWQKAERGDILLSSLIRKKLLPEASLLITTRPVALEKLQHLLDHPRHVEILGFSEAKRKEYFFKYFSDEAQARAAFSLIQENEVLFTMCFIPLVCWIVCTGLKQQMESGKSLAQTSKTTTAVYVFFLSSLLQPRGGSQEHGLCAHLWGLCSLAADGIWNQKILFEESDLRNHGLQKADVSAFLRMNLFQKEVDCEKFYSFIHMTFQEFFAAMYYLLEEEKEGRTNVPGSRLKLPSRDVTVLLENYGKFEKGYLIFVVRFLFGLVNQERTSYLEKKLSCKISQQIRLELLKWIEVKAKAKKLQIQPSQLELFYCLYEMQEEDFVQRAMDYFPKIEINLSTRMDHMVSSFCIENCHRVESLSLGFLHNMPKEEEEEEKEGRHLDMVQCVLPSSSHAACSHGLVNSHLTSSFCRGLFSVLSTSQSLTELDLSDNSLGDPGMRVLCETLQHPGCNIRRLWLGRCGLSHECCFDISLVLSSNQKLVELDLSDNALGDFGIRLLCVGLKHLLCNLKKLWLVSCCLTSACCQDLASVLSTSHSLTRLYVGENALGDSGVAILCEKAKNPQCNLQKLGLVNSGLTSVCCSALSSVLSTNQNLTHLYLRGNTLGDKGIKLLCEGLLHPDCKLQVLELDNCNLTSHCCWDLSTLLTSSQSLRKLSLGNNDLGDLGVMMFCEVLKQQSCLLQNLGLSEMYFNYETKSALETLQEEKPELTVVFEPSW

As to `Cc1cc(C(F)(F)F)cc(O)c1-c1ccc(N2CC[C@@H]3CCNC[C@@H]32)nn1` (single isomer, unassigned) [Example 407], the IC50 – broadly, the concentration that inhibits the measured activity by half – on NLRP3 inflammasome is 3 nM; in test [1], over 10000 nM.
`Cc1cc(N2CCO[C@H](CO)C2)nnc1-c1ccc(Cl)cc1O` [Example 85, 5-chloro-2-[6-[(2S)-2-(hydroxymethyl)morpholin-4-yl]-4-methyl-pyridazin-3-yl]phenol]: the IC50 on NLRP3 inflammasome was 33 nM; in test [1], over 10000 nM.
With `COC[C@@H]1CCCN1c1ccc(-c2c(C)cc(C(F)(F)F)cc2O)nn1` [Example 15, 2-[6-[(2S)-2-(methoxymethyl)pyrrolidin-1-yl]pyridazin-3-yl]-3-methyl-5-(trifluoromethyl)phenol], the IC50 on NLRP3 inflammasome is 406 nM; in test [1], over 10000 nM.
On the same counts, the results for `Cc1cc(C(F)(F)F)cc(O)c1-c1ccc(N2C[C@H](CO)O[C@@H](CO)C2)nn1` [Example 200, 2-[6-[(2R,6R)-2,6-bis(hydroxymethyl)morpholin-4-yl]pyridazin-3-yl]-3-methyl-5-(trifluoromethyl)phenol] are 23 nM and over 10000 nM.
As for `NC1(C2CCCN(c3ccc(-c4c(O)cc(Cl)cc4Cl)nn3)C2)CC1` (centres unmarked) [Example 17, 2-[6-[3-(1-aminocyclopropyl)-1-piperidyl]pyridazin-3-yl]-3,5-dichloro-phenol], the results for the IC50 (at NLRP3 inflammasome; in test [1]) were 473 nM and over 10000 nM, respectively.
Turning to `CCN1CC[C@H]2OCCN(c3cc(C)c(-c4ccc(C)cc4O)nn3)[C@H]2C1` [Example 435, 2-[6-[(4aS,8aR)-6-ethyl-3,4a,5,7,8,8a-hexahydro-2H-pyrido[4,3-b][1,4]oxazin-4-yl]-4-methyl-pyridazin-3-yl]-5-methyl-phenol], the IC50 at NLRP3 inflammasome is 3 nM; in test [1], over 10000 nM.
`Cc1cccc(O)c1-c1ccc(N2CC[C@@H]3CCN(C)C[C@@H]32)nn1` (racemic) [Example 385, 3-methyl-2-[6-[rac-(3aS,7aR)-6-methyl-3,3a,4,5,7,7a-hexahydro-2H-pyrrolo[2,3-c]pyridin-1-yl]pyridazin-3-yl]phenol]: the IC50 was 2 nM on NLRP3 inflammasome and over 10000 nM in test [1].
In the same order, the values of `Cc1cc(C)c(-c2ccc(N3CCO[C@H]4CCNC[C@H]43)nn2)c(O)c1` [Example 314, 2-[6-[(4aR,8aS)-2,3,4a,5,6,7,8,8a-octahydropyrido[4,3-b][1,4]oxazin-4-yl]pyridazin-3-yl]-3,5-dimethyl-phenol] are 18 nM and over 10000 nM.
Take `Cc1cc(Cl)cc(O)c1-c1ccc(N2CCOc3cc(O)ccc32)nn1` [Example 193, 4-[6-(4-chloro-2-hydroxy-6-methyl-phenyl)pyridazin-3-yl]-2,3-dihydro-1,4-benzoxazin-7-ol]: the values for the IC50 (at NLRP3 inflammasome; in test [1]) were 534 nM and 9830 nM, respectively.
Consider `CCc1cc(C)c(-c2ccc(N3CCO[C@H](CO)C3)nn2)c(O)c1` [Example 245, 5-ethyl-2-[6-[(2S)-2-(hydroxymethyl)morpholin-4-yl]pyridazin-3-yl]-3-methylphenol], for which the IC50 on NLRP3 inflammasome is 64 nM; in test [1], over 10000 nM.
As for `OC[C@H]1CCCN(c2ccc(-c3c(O)cc(Cl)cc3Cl)nn2)C1` [Example 34, 3,5-dichloro-2-[6-[(3S)-3-(hydroxymethyl)-1-piperidyl]pyridazin-3-yl]phenol], the IC50 is 95 nM at NLRP3 inflammasome and over 10000 nM in test [1].
In the case of `Cc1cc(C)c(-c2ccc(N3CC[C@H](CO)C3=O)nn2)c(O)c1` (single isomer, unassigned) [Example 139], the IC50 is 235 nM at NLRP3 inflammasome and over 10000 nM in test [1].
Consider `CCN1CC[C@@H]2OCCN(c3ccc(-c4c(C)cc(C(F)(F)F)cc4O)nn3)[C@@H]2C1` (racemic) [Example 210, 2-[6-[rac-(4aR,8aS)-6-ethyl-3,4a,5,7,8,8a-hexahydro-2H-pyrido[4,3-b][1,4]oxazin-4-yl]pyridazin-3-yl]-3-methyl-5-(trifluoromethyl)phenol], for which the IC50 at NLRP3 inflammasome is 1 nM; in test [1], over 10000 nM.
Regarding `Cc1cc(C)c(-c2ccc(N3C[C@H](CO)O[C@@H](CO)C3)nn2)c(O)c1` [Example 201, 2-[6-[(2R,6R)-2,6-bis(hydroxymethyl)morpholin-4-yl]pyridazin-3-yl]-3,5-dimethyl-phenol], the IC50 on NLRP3 inflammasome is 76 nM; in test [1], over 10000 nM.
As for `Cc1cc(C(F)(F)F)cc(O)c1-c1ccc(N2C[C@@H](O)CC2=O)nn1` [Example 62, (4S)-4-hydroxy-1-[6-[2-hydroxy-6-methyl-4-(trifluoromethyl)phenyl]pyridazin-3-yl]pyrrolidin-2-one], the IC50 on NLRP3 inflammasome is 52 nM; in test [1], over 10000 nM.
As to `CNC(=O)C[C@H]1CN(c2ccc(-c3c(C)cc(C)cc3O)nn2)CCO1` (single isomer, unassigned) [Example 143], the IC50 at NLRP3 inflammasome is 221 nM; in test [1] it was over 10000 nM.
In the case of `Cc1cccc(O)c1-c1ccc(N2CC[C@H]3CCN(C)C[C@H]32)nn1` (single isomer, unassigned) [Example 416], the values for the IC50 (on NLRP3 inflammasome; in test [1]) were 1 nM and over 10000 nM, respectively.
For `CN1CC[C@@H]2OCCN(c3cc(C(F)F)c(-c4ccc(C(F)(F)F)cc4O)nn3)[C@@H]2C1` [Example 268, 2-[6-[(4aR,8aS)-6-methyl-3,4a,5,7,8,8a-hexahydro-2H-pyrido[4,3-b][1,4]oxazin-4-yl]-4-(difluoromethyl)pyridazin-3-yl]-5-(trifluoromethyl)phenol], the IC50 on NLRP3 inflammasome is 263 nM; in test [1], over 10000 nM.
Consider `CCc1cc(N2CCO[C@H](CO)C2)nnc1-c1ccc(Cl)cc1O` [Example 73, 5-chloro-2-[4-ethyl-6-[(2S)-2-(hydroxymethyl)morpholin-4-yl]pyridazin-3-yl]phenol], for which the results for the IC50 (at NLRP3 inflammasome; in test [1]) were 56 nM and over 10000 nM, respectively.
Regarding `Cc1cc(C)c(-c2ccc(N3CCO[C@@H]4CCN(C5CCC5)C[C@@H]43)nn2)c(O)c1` (single isomer, unassigned) [Example 11], the figures for the IC50 (at NLRP3 inflammasome; in test [1]) were 3 nM and over 10000 nM, respectively.
For the molecule `CC(=O)N1CC[C@H]2OCCN(c3cc(C)c(-c4ccc(C)cc4O)nn3)[C@H]2C1` [Example 431, 1-[(4aS,8aR)-4-[6-(2-hydroxy-4-methyl-phenyl)-5-methyl-pyridazin-3-yl]-3,4a,5,7,8,8a-hexahydro-2H-pyrido[4,3-b][1,4]oxazin-6-yl]ethanone], the IC50 at NLRP3 inflammasome was 62 nM; in test [1], over 10000 nM.
Take `CC(=O)NC[C@@H]1CCCN(c2ccc(-c3c(C)cc(Cl)cc3O)nn2)C1` [Example 211, N-[[(3S)-1-[6-(4-chloro-2-hydroxy-6-methyl-phenyl)pyridazin-3-yl]-3-piperidyl]methyl]acetamide]: the IC50 on NLRP3 inflammasome was 34 nM; in test [1], over 10000 nM.
In the same order, the values of `CNC(=O)C[C@@H]1CN(c2ccc(-c3c(C)cc(C)cc3O)nn2)CCO1` (single isomer, unassigned) [Example 142] are 360 nM and over 10000 nM.
In the case of `Cc1cc(C(F)(F)F)cc(O)c1-c1ccc(N2CC(CO)C2)nn1` [Example 30, 2-[6-[3-(hydroxymethyl)azetidin-1-yl]pyridazin-3-yl]-3-methyl-5-(trifluoromethyl)phenol], the values for the concentration for half-maximal inhibition (IC50) (at NLRP3 inflammasome; in test [1]) were 431 nM and over 10000 nM, respectively.
`Cc1cc(N2CC[C@H]3CCN(C)C[C@H]32)nnc1-c1ccc(C(F)(F)F)cc1O` (single isomer, unassigned) [Example 367]: the values for the IC50 (at NLRP3 inflammasome; in test [1]) were 0.5 nM and over 10000 nM, respectively.
Regarding `CCc1cccc(O)c1-c1ccc(N2CCO[C@@H]3CCN(C(C)C)C[C@@H]32)nn1` [Example 432, 2-[6-[(4aS,8aR)-6-isopropyl-3,4a,5,7,8,8a-hexahydro-2H-pyrido[4,3-b][1,4]oxazin-4-yl]pyridazin-3-yl]-3-ethyl-phenol], the IC50 on NLRP3 inflammasome is 5 nM; in test [1] it was over 10000 nM.
As to `Cc1cc(C)c(-c2ccc(N3C[C@@H](CO)O[C@@H](C)C3)nn2)c(O)c1` [Example 390, 2-[6-[(2S,6S)-2-(hydroxymethyl)-6-methyl-morpholin-4-yl]pyridazin-3-yl]-3,5-dimethyl-phenol], the IC50 was 33 nM at NLRP3 inflammasome and over 10000 nM in test [1].
As to `Cc1cc(C(F)(F)F)cc(O)c1-c1ccc(N2CCO[C@H]3CCNC[C@H]32)nn1` (racemic) [Example 197, 2-[6-[rac-(4aR,8aS)-2,3,4a,5,6,7,8,8a-octahydropyrido[4,3-b][1,4]oxazin-4-yl]pyridazin-3-yl]-3-methyl-5-(trifluoromethyl)phenol], the IC50 on NLRP3 inflammasome is 9 nM; in test [1], over 10000 nM.
For the molecule `CC(=O)NC[C@@H]1CN(c2ccc(-c3c(C)cc(Cl)cc3O)nn2)CCO1` [Example 267, N-[[(2R)-4-[6-(4-chloro-2-hydroxy-6-methyl-phenyl)pyridazin-3-yl]morpholin-2-yl]methyl]acetamide], the IC50 at NLRP3 inflammasome is 185 nM; in test [1], over 10000 nM.
As to `CC(=O)N1C[C@@H]2CCN(c3ccc(-c4c(C)cc(C(F)(F)F)cc4O)nn3)[C@@H]2C1` (racemic) [Example 228, 1-[rac-(3aS,6aS)-1-[6-[2-hydroxy-6-methyl-4-(trifluoromethyl)phenyl]pyridazin-3-yl]-2,3,3a,4,6,6a-hexahydropyrrolo[3,4-b]pyrrol-5-yl]ethanone], the results for the IC50 (at NLRP3 inflammasome; in test [1]) were 271 nM and over 10000 nM, respectively.
For the molecule `Cc1cc(C)c(-c2ccc(N3CCO[C@@H](CO)C3)nn2)c(O)c1` [Example 9, 2-[6-[(2R)-2-(hydroxymethyl)morpholin-4-yl]pyridazin-3-yl]-3,5-dimethyl-phenol], the IC50 was 113 nM at NLRP3 inflammasome and over 10000 nM in test [1].

(Values after patent publication US20240360151A1 (SANOFI, priority 2023, published 2024).)
